Results: patent US20040266718A1, “Inhibition of specific histone deacetylase isoforms” (priority 2001, published 2004)
d = 2'-deoxy (DNA); m = 2'-O-methyl

Assays:
[1] = system: human colon cancer cells (HCT116); assay: tumor growth in mouse model, colon; assay type: in vivo, BALB/c nude mice; settings: 40 mg/kg body weight/day, po
Method: (§1) Female BALB/c nude mice were obtained from Charles River Laboratories (Charles River, N.Y.) and used at age 8-10 weeks. Human prostate tumor cells (DU145, 2×10^6) or human colon cancer cells (HCT116; 2×10^6) or […] A549 2×106 were injected subcutaneously in the animal's flank and allowed to form solid tumors. Tumor fragments were serially passaged a minimum of three times, then approximately 30 mg tumor fragments were implanted subcutaneously through a small surgical incision under general anaesthesia. Small molecule inhibitor administration by intraperotineal or oral administration was initiated when the tumors reached a volume of 100 mm^3. For intraperotineal administration, small molecule inhibitors of HDAC (40-50 mg/kg body weight/day) were dissolved in 100% DMSO and administered daily intraperitoneally by injection. For oral administration, small molecule inhibitors of HDAC (40-50 mg/kg body weight/days) were dissolved in a solution containing 65% polyethylene glycol 400 (PEG 400 (Sigma-Aldridge, Mississauga, Ontario, CA, Catalogue No. P-3265), 5% ethanol, and 30% water. Tumor volumes were monitored twice weekly up to 20 days. Each experimental group contained at least 6-8 animals. Percentage inhibition was calculated using volume of tumor from vehicle-treated mice as controls.

[2] = system: Human cancer HCT116 cells; assay: cell cycle arrest by FACS; assay type: cell-based; settings: HCT116, 16 hours; concentration to induce a (G2+M)/S ratio of 2.5
Method: Human cancer HCT116 cells were plated at 2×10^5 per 10-cm dish and were left to attach to the dish overnight in the incubator. Cells were treated with small molecule inhibitors at various concentrations (1 uM and 10 uM, typically, dissolved in DMSO) for 16 hours. Cells were harvested by trypsinization and washed once in 1×PBS (phosphate buffered saline). The cells were resuspended in about 200 ul 1×PBS and were fixed by slowly adding 1 ml 70% ethanol at −20° C. and were left at least overnight at −20° C. Fixed cells were centrifuged at low speed (1,000 rpm) for 5 minutes, and the cell pellets were washed again with 1×PBS. Nucleic acids from fixed cells were incubated in a staining solution (0.1% (w/v) glucose in 1×PBS containing 50 ug/ml propidium iodide) (Sigma-Aldridge, Mississauga, Ontario, CA) and RNase A (final 100 units/ml, (Sigma-Aldridge, Mississauga, Ontario, CA) for at least 30 minutes in the dark at 25° C. DNA content was measured by using a fluorescence-activated cell sorter (FACS) machine. Treatment of cells with all HDAC small molecule inhibitors in Table 2 results in a significant accumulation of cancer cell in G2/M phase of the cell cycle and concomitantly reduce the accumulation of cancer cells in S phase of the cell cycle. The ratio of cells in G2/M phase vs. cells in the S. phase was determined. […]

human HDAC-3 = target: T1, human HDAC-3 (Homo sapiens, UniProt O15379); assay: histone deacetylase enzyme assay, HDAC-3; assay type: biochemical; settings: recombinant human enzyme, [3H]-acetylated histone substrate, 2 hours; read-out: Enzyme IC50 (μM) HDAC3
T1 construct: made in house; host or cells: insect cells (baculovirus expression system)
Method: (§2) The other HDAC isotypes, HDAC-3 and HDAC-4, were purified directly on an anti-Flag affinity column.
(§3) For the deacetylase assay, 20,000 cpm of an [^3H]-metabolically-labeled acetylated histone was used as a substrate. Histones were incubated with cloned recombinant human HDAC enzymes at 37° C. […] All assay conditions were pre-determined to be certain that each reaction was linear. Reactions were stopped by adding acetic acid (0.04 M, final concentration) and HCl (250 mM, final concentration). The mixture was extracted with ethyl acetate, and the released [^3H]-acetic acid was quantified by liquid scintillation counting. For the inhibition studies, HDAC enzyme was preincubated with test compounds for 30 minutes at 4° C. prior to the start of the enzymatic assay. IC50 values for HDAC enzyme inhibitors were identified with dose response curves for each individual compound and, thereby, obtaining a value for the concentration of inhibitor that produced fifty percent of the maximal inhibition.

human HDAC-4 = target: T2, human HDAC-4 (Homo sapiens, UniProt P56524); assay: histone deacetylase enzyme assay, HDAC-4; assay type: biochemical; settings: recombinant human enzyme, [3H]-acetylated histone substrate, 2 hours; read-out: Enzyme IC50 (μM) HDAC4
T2 construct: Flag; made in house
Method: Flag-tagged human HDAC-4 enzyme was produced in human embronic kidney 293 cells after transformation by the calcium phosphate precipitation method. Briefly, 293 cells were cultured in Dulbecco's Modified Eagle Medium (DMEM) containing 10% fetal bovine serum and antibiotics. Plasmid DNA encoding Flag-tagged human HDAC-4 was precipitated by ethanol and resuspend in sterile water. DNA-calcium precipitates, formed by mixing DNA, calcium choloride and 2× HEPES-buffered saline solution, were left on 293 cells for 12-16 hours. Cells were return to serum-contained. DMEM medium and harvested at 48 hour post transfection for purification of Flag-tagged HDAC-4 enzyme.
as §2
For the deacetylase assay, 20,000 cpm of an [^3H]-metabolically-labeled acetylated histone was used as a substrate. Histones were incubated with cloned recombinant human HDAC enzymes at 37° C. […] All assay conditions were pre-determined to be certain that each reaction was linear. Reactions were stopped by adding acetic acid (0.04 M, final concentration) and HCl (250 mM, final concentration). The mixture was extracted with ethyl acetate, and the released [^3H]-acetic acid was quantified by liquid scintillation counting. […]

[3] = system: acetylated histone H-4 in T24 human bladder cancer cells; assay: inhibition of HDAC activity in whole cells (acetylated histone H-4 Western blot); assay type: cell-based; settings: 16 hours
Method: T24 human bladder cancer cells (ATCC, Manassas, Va.) growing in culture were incubated with test compounds for 16 hours. Histones were extracted from the cells by standard procedures (see e.g. Yoshida et al., supra) after the culture period. Twenty μg total core histone protein was loaded onto SDS/PAGE and transferred to nitrocellulose membranes, which were then reacted with polyclonal antibody specific for acetylated histone H-4 (Upstate Biotech Inc., Lake Placid, […].). Horse Radish Peroxidase conjugated secondary antibody was used at a dilution of 1:5000 to detect primary antibody binding. The secondary antibody binding was visualized by use of the Enhanced chemiluminescence (ECL) detection kit (Amersham-Pharmacia Biotech., Inc., Piscataway, N.J.). After exposure to film, acetylated H-4 signal was quantitated by densitometry.

human HDAC-1 = target: T3, human HDAC-1 (Homo sapiens, UniProt Q13547); assay: histone deacetylase enzyme assay, HDAC-1; assay type: biochemical; settings: recombinant human enzyme, [3H]-acetylated histone substrate, 10 minutes; read-out: Enzyme IC50 (μM) HDAC1
T3 construct: made in house; host or cells: insect cells (baculovirus expression system)
Method: as §2, §3

human HDAC-6 = target: T4, human HDAC-6 (Homo sapiens, UniProt Q9UBN7); assay: histone deacetylase enzyme assay, HDAC-6; assay type: biochemical; settings: recombinant human enzyme, [3H]-acetylated histone substrate, 2 hours; read-out: Enzyme IC50 (μM) HDAC6
T4 construct: made in house; host or cells: insect cells (baculovirus expression system)
Method: as §2, §3

[4] = system: human colon cancer HCT116 cells; assay: MTT assay of cell proliferation; assay type: cell-based; settings: HCT-116, 72 hours
Method: Two thousand (2,000) human colon cancer HCT116 cells (ATCC, Manassas, Va. were used in an MTT (3-[4,5-dimethylthiazol-2-yl]-2,5 diphenyl tetrazolium bromide) assay to quantitatively determine cell proliferation and cytotoxicity. Typically, HCT116 cells were plated into each well of the 96-well tissue culture plate and left overnight to attach to the plate. Compounds at various concentrations were added into the culture media (final DMSO concentration 1%) and incubated for 72 hours. MTT solution (obtained from Sigma as powder) was added and incubated with the cells for 4 hours at 37° C. in incubator with 5% CO2. During the incubation, viable cells convert MTT to a water-insoluble formazan dye. Solubilizing buffer (50% N,N-dimethylformamide, 20% SDS, pH 4.7) was added to cells and incubated for overnight at 37C in incubator with 5% CO2. Solubilized dye was quantitated by calorimetric reading at […] using a reference of […]. Optical density values were converted to cell number values by comparison to a standard growth curve for each cell line.

A549 [5] = assay: tumor growth in mouse model, lung; assay type: in vivo, BALB/c nude mice; settings: 50 mg/kg body weight/day, ip
Method: as §1

human HDAC-4 RNA = assay: antisense screen by Northern blot in T24 cells, HDAC-4; assay type: cell-based; settings: screened as above (T24 cells, 100 nM, 24 hours)
Method: Seventeen phosphorothioate ODNs containing sequences complementary to the 5′ or 3′ UTR of the human HDAC-4 gene (GenBank Accession No. AB006626) were screened as above. […] HDAC-4 MM1 and MM2 oligonucleotides were created as controls; compared to the antisense oligonucleotides, they each contain a 6-base mismatch.
(§4) Briefly, human A549 and/or T24 human bladder carcinoma cells were seeded in 10 cm tissue culture dishes one day prior to oligonucleotide treatment. The cell lines were obtained from the American Type Culture Collection (ATCC) (Manassas, Va.) and were grown under the recommended culture conditions. Before the addition of the oligonucleotides, cells were washed with PBS (phosphate buffered saline). Next, lipofectin transfection reagent (GIBCO BRL Mississauga, Ontario, Calif.), at a concentration of 6.25 μg/ml, was added to serum free OPTIMEM medium (GIBCO BRL, Rockville, Md.), which was then added to the cells. The oligonucleotides to be screened were then added directly to the cells (i.e., one oligonucleotide per plate of cells). Mismatched oligonucleotides were used as controls. The same concentration of oligonucleotide (e.g., 50 nM) was used per plate of cells for each oligonucleotide tested.
Cells were harvested, and total RNAs were analyzed by Northern blot analysis. Briefly, total RNA was extracted using RNeasy miniprep columns (QIAGEN). […]

HMEC = assay: apoptosis, Cell Death Detection ELISA, HMEC; assay type: cell-based, human; settings: OSDN, normal cells
Method: (§5) In order to determine the effect of HDAC OSDNs on cell growth and cell death through apoptosis, A549 or T24 cells, MDAmb231 cells, and HMEC cells (ATCC, Manassas, Va.) were treated with HDAC OSDNs as previously described.
(§6) For the apoptosis study, cells were analyzed using the Cell Death Detection ELISA^Plus kit (Roche Diagnostic GmBH, Mannheim, Germany) according to the manufacturer's directions. Typically, 10,000 cells were plated in 96-well tissue culture dishes for 2 hours before harvest and lysis. Each sample was analyzed in duplicate. ELISA reading was done using a MR700 plate reader (DYNEX Technology, Ashford, Middlesex, England) at 410 nm. The reference was set at 490 nm.

MDAmb231 [6] = assay: apoptosis, Cell Death Detection ELISA, MDAmb231; assay type: cell-based, human; settings: OSDN
Method: as §5, §6

A549 [7] = assay: cell growth analysis (trypan blue cell count), A549; assay type: cell-based, human; settings: 50 nM, 72 hours
Method: as §4, §5
(§7) Cells were harvested and cell numbers counted by trypan blue exclusion using a hemocytometer. Percentage of inhibition was calculated as (100—AS cell numbers/control cell numbers)%.

T24 [8] = assay: apoptosis, Cell Death Detection ELISA, T24; assay type: cell-based, human; settings: OSDN
Method: as §5, §6

[9] = system: p21 protein in A549 cells; assay: Western blot of p21 protein in A549 cells; assay type: cell-based, human; settings: FIG. 15
A549 [10] = assay: apoptosis, Cell Death Detection ELISA, A549; assay type: cell-based, human; settings: OSDN
Method: as §5, §6

T24 [11] = assay: cell growth analysis (trypan blue cell count), T24; assay type: cell-based, human; settings: 50 nM, 72 hours
Method: as §4, §5, §7

MDAmb231 [12] = assay: cell growth analysis (trypan blue cell count), MDAmb231; assay type: cell-based, human; settings: 50 nM, 72 hours
Method: as §4, §5, §7

human HDAC-7 RNA = assay: antisense screen by Northern blot in T24 cells, HDAC-7; assay type: cell-based; settings: screened as above (T24 cells, 100 nM, 24 hours)
Method: Eighteen phosphorothioate ODNs containing sequences complementary to the 5′ or 3′ untranslated regions of the human HDAC-7 gene (GenBank Accession No. AF239243) were screened as above.
as §4
Cells were harvested, and total RNAs were analyzed by Northern blot analysis. Briefly, total RNA was extracted using RNeasy miniprep columns (QIAGEN). Ten to twenty μg of total RNA was run on a formaldehyde-containing 1% agarose gel with 0.5 M sodium phosphate (pH 7.0) as the buffer system. […]

T4 sequence (Q9UBN7 whole entry): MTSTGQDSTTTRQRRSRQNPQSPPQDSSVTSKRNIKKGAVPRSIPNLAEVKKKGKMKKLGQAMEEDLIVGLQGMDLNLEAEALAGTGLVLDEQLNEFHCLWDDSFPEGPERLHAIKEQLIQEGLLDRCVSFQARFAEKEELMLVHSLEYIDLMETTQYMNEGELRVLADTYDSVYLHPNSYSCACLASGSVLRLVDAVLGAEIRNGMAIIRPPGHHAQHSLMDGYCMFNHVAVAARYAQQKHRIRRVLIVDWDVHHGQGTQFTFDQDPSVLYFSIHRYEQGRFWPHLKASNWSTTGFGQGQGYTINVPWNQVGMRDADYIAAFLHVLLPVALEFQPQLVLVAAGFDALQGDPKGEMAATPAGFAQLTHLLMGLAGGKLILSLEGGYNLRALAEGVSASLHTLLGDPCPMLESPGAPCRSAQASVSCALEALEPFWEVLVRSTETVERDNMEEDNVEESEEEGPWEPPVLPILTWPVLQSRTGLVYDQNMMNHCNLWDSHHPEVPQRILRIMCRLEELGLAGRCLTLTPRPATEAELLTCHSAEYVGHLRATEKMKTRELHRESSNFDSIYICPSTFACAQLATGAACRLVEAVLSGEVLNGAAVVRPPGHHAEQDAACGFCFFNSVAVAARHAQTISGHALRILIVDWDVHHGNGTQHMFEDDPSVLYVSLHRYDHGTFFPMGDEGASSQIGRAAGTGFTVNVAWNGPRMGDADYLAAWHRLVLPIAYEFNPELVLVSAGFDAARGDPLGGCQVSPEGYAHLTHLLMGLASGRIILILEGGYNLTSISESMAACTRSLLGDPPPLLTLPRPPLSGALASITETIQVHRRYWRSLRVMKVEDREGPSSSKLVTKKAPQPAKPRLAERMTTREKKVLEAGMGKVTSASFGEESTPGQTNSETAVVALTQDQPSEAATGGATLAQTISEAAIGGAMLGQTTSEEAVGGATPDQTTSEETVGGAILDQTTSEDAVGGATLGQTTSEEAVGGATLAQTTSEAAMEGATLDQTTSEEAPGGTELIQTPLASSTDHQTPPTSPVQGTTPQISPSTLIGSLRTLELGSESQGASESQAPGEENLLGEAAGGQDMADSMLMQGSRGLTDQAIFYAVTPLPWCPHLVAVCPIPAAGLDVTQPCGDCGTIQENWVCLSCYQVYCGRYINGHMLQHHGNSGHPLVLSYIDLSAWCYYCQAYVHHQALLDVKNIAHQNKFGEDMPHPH
T1 sequence (O15379 whole entry): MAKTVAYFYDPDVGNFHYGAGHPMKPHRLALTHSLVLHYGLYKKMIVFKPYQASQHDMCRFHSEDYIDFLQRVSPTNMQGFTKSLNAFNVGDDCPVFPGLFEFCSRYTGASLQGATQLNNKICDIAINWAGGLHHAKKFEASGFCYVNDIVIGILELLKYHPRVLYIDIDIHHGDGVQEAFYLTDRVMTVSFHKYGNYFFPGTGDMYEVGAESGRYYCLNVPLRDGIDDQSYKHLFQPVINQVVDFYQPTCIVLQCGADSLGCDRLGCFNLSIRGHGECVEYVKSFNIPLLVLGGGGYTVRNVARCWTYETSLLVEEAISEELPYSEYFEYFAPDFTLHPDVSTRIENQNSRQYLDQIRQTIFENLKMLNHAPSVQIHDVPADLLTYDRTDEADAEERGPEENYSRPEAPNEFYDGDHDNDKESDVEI
T3 sequence (Q13547 whole entry): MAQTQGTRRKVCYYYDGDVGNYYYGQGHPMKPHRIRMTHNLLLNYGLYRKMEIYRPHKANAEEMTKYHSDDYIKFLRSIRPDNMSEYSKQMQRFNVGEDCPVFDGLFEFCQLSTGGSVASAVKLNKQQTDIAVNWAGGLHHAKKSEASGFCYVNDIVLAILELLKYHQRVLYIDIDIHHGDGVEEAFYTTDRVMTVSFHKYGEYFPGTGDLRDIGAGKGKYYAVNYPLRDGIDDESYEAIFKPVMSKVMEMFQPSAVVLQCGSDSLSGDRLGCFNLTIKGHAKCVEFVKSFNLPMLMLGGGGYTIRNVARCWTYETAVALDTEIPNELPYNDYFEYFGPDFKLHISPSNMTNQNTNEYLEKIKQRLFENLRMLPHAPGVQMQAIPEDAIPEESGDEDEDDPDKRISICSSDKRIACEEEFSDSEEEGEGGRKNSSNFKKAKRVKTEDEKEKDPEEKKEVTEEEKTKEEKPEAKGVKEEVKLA
T2 sequence (P56524 whole entry): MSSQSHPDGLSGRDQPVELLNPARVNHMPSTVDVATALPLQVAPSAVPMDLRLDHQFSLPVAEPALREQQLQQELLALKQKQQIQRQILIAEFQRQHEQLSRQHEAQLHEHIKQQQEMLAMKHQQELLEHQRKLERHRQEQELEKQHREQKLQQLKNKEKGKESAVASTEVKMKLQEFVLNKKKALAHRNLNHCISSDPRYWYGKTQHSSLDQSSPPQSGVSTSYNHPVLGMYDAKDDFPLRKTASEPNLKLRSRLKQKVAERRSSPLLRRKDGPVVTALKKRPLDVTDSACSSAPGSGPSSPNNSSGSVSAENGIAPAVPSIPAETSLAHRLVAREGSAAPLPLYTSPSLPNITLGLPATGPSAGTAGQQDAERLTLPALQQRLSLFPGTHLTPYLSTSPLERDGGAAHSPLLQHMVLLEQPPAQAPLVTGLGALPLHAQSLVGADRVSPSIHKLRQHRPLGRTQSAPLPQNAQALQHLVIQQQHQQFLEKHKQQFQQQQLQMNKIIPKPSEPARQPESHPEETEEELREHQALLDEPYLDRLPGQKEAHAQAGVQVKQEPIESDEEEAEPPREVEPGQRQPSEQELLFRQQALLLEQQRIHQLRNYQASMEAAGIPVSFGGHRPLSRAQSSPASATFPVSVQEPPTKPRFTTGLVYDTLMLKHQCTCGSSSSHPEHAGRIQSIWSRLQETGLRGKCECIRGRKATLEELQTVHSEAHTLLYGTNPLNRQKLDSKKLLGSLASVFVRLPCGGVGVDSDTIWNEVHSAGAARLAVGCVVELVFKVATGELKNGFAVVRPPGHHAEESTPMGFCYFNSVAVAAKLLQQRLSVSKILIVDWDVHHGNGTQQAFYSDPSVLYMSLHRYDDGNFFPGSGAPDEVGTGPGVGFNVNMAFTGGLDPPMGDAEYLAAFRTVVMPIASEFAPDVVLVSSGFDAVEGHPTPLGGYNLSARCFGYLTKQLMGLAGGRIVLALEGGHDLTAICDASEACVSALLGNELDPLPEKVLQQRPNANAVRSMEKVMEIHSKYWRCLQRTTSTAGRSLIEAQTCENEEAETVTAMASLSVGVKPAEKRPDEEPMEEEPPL

Nc1ccccc1NC(=O)/C=C/C#Cc1cccc(NS(=O)(=O)c2ccccc2)c1 [Compound 2]
% inhibitor of tumor formation in vivo, colon [1]: 53%
Cell Cycle Arrest EC [2]: 8 µM
IC50 (human HDAC-3): 30 µM
IC50 (human HDAC-4): 35 µM
H4-Ac [3]: 5 µM
IC50 (human HDAC-1): 3 µM
IC50 (human HDAC-6): > 30 µM
EC50 [4]: 4 µM
% inhibitor of tumor formation in vivo, lung (A549 [5]): 54%

HDAC-4 AS1: antisense oligonucleotide to human HDAC4, 5-GCTGCCTGCCGTGCCCACCC-3′ (SEQ ID NO:24) (sugars from the 5' end m4 d12 m4, all phosphorothioate, methylation of C and T or U not given here)
antisense activity to human HDAC-4 (RNA expression, Northern blot) (human HDAC-4 RNA): antisense activity
Apoptosis After 48 Hour Treatment HMEC (HMEC): − (< = 2x fold over non-specific background)
Apoptosis After 48 Hour Treatment MDAmb231 (MDAmb231 [6]): ++ (3-5X fold)
Growth Inhibition (AS vs. MM) A549 (A549 [7]): +++ (>75% inhibition)
Apoptosis After 48 Hour Treatment T24 (T24 [8]): + (2-3X fold)
expression of the p21 protein [9]: induces the expression of the p21 protein
Apoptosis After 48 Hour Treatment A549 (A549 [10]): +++ (5-8X fold)
Growth Inhibition (AS vs. MM) T24 (T24 [11]): ++ (50-75% inhibition)
Growth Inhibition (AS vs. MM) MDAmb231 (MDAmb231 [12]): ++ (50-75% inhibition)

HDAC-7 AS: antisense oligonucleotide to human HDAC7, 5′-CTTCAGCCAGGATGCCCACA-3′ (SEQ ID NO:31) (sugars from the 5' end m4 d12 m4, all phosphorothioate, methylation of C and T or U not given here)
antisense activity to human HDAC-7 (RNA expression, Northern blot) (human HDAC-7 RNA): antisense activity
